m = 2'-O-methyl; r = 2'-OH (RNA)
Tested on: TLR7/8
Assay: Cytokine induction in human PBMCs by immunostimulatory RNA, alone or co-formulated with modified ssRNA in the same SNALP/lipid particle
Format: cell-based
Conditions: for IFN-α production induced by the RNA alone: lipid-formulated RNA alone, doses 0.1 to 3 μg/ml; for immunostimulatory effects (IFN-α induction) of ApoB antisense ssRNA when co-formulated / IFN-α induction by NP ssRNA when co-formulated: 1:1 molar ratio; for IFN-α induction by NP ssRNA when co-formulated: 0.5 μg/ml NP ssRNA
Description: All RNA molecules used in this study were heated at 90° C. for 3 min. and then placed at 37° C. for 60 min. Non-denaturing PAGE analysis on a 20% polyacrylamide gel was performed to confirm that ssRNA molecules were intact and that no duplexes had formed upon heating. The RNA molecules were encapsulated in a SNALP formulation comprising PEG-cDMA:DLinDMA:cholesterol:DSPC in a 2:40:48:10 mol % ratio (2:40 SNALP), prepared using a syringe press process.
Fresh human peripheral blood mononuclear cells (PBMCs) were isolated and seeded at about 3×10^5 cells/well in a total volume of 180 μl. Next, 20 μl of the appropriate SNALP diluted in PBS or 10 μl of naked TLR agonist were added to the PBMCs. For time course experiments, PBMCs were pretreated with UmodS ssRNA or a control and the appropriate naked TLR agonist was added at 0, 0.5, or 2 hours after pretreatment. When the SNALP and naked TLR agonist were added separately, the SNALP was added first followed by the naked TLR agonist. At t=24 hr., the cell supernatant was harvested and IFN-α and/or IL-6 levels were determined using ELISA.
The ssRNA molecules used in this study were heated at 90° C. for 3 min. and then placed at 37° C. for 60 min to disrupt any potential secondary structure. Non-denaturing PAGE analysis on a 20% polyacrylamide gel was performed to confirm that ssRNA molecules were intact and that no duplexes had formed upon heating. siRNA duplexes were prepared by annealing equimolar concentrations of two deprotected and desalted ssRNA oligonucleotides using standard procedures. Formation of annealed siRNA duplexes was confirmed by non-denaturing PAGE analysis on a 20% polyacrylamide gel. The RNA molecules were encapsulated in a 2:40 SNALP formulation prepared using a syringe press process.
Fresh human peripheral blood mononuclear cells (PBMCs) were isolated and seeded at about 3×10^5 cells/well in a total volume of 180 μl. Next, 20 μl of the appropriate SNALP diluted in PBS were added to the PBMCs. At t=24 hr., the cell supernatant was harvested and IFN-α and/or IL-6 levels were determined using an enzyme-linked immunosorbent assay (ELISA). For example, IFN-α and IL-6 levels can be measured using a sandwich ELISA kit available from PBL Biomedical (Piscataway, N.J.) and eBioscience (San Diego, Calif.), respectively.
Lipid Encapsulation of RNA and ODN. RNA or ODN were encapsulated in liposomes by a process of spontaneous vesicle formation as described in Judge et al., supra, and Jeffs et al., Pharm. Res., 22:362-372 (2005).
Cell Isolation and Culture. Human PBMCs were isolated from whole blood of healthy donors by a standard Ficoll-Hypaque density centrifugation. Blood was diluted 1:1 with PBS, layered onto Ficoll-Paque Plus, and centrifuged at 1600 RPM for 30 min. PBMCs were washed in PBS twice followed by resuspension in complete media (RPMI 1640, 10% heat inactivated FBS, 2 mM L-glutamine, and 1% penicillin/streptomycin). PBMCs were plated at 2.5×10^5 cells/well in 96 well plates for cytokine induction assays.
Loxoribine (InvivoGen; San Diego, Calif.), polyIC (Sigma-Aldrich; St. Louis, Mo.), and formulated nucleic acids were diluted in PBS and added to either human PBMC or Flt3L DC cultures. Cells were incubated 24 h at 37° C. before supernatants were assayed for cytokines by ELISA.
Cytokine ELISA. All cytokines were quantified using sandwich ELISA kits according to the manufacturer's instructions. These were mouse and human IFN-α (PBL Biomedical; Piscataway, N.J.) and IL-6 (eBioscience; San Diego, Calif.).

[1] = human PBMCs, co-formulated in the same SNALP, 24 h
[2] = human PBMCs, equimolar amounts in the same SNALP, 24 h

## NP1496 UmodS: influenza NP1496 sense strand ssRNA with 2′OMe uridines: GGAmUCmUmUAmUmUmUCmUmUCGGAGUU (sense GGAUCUUAUUUCUUCGGAGUU; sugars from the 5' end rrrmrmmrmmmrmmrrrrrrr, backbone not given here)
[…]
  IFN-α production induced by the RNA alone: do not induce measurable IFN-α production
Human PBMCs, co-formulated in the same SNALP at 1:1, 1:2, or 1:4 molar ratio (up to 4-fold molar excess of agonist)
  immunostimulatory effects of ApoB antisense ssRNA at molar excess of agonist: antagonized
[1]
  immunostimulatory effects (IFN-α induction) of ApoB antisense ssRNA when co-formulated: abolished
Human PBMCs, co-formulated in the same SNALP, 24 h, listed as NP-mU
  immunostimulatory effects (IFN-α induction) of ApoB antisense ssRNA when co-formulated: abrogated
Human PBMCs, co-formulated in the same SNALP, equimolar, 24 h
  immunostimulatory effects (IFN-α induction) of ApoB siRNA duplex when co-formulated: abrogated
[2]
  IFN-α levels induced by β-gal antisense ssRNA when co-encapsulated: abrogated

## polyUmod10: 2′OMe-uridine homopolymer of 10 nucleotides in length (UUUUUUUUUU; all 2'-O-methyl, backbone not given here)
Human PBMCs, co-formulated with immunostimulatory ssRNA
  cytokine production from human PBMCs when co-formulated with immunostimulatory RNA: significantly reduced cytokine induction, although inhibition with these shorter oligonucleotides was not absolute
[2]
  IFN-α levels induced by β-gal antisense ssRNA when co-encapsulated: significantly reduced
  IL-6 levels induced by β-gal antisense ssRNA when co-encapsulated: significantly reduced
Human PBMCs, equimolar amounts in the same SNALP, 24 h, listed as (mU)10
  IFN-α levels induced by β-gal antisense ssRNA when co-encapsulated: inhibit

## Luc: unmodified Luc sense strand ssRNA: 5′GAUUAUGUCCGGUUAUGUAUU 3′ (sense GAUUAUGUCCGGUUAUGUAUU; RNA, backbone not given here) [reference compound]
[1]
  immunostimulatory effects (IFN-α induction) of ApoB antisense ssRNA when co-formulated: high levels of IFN-α were still induced

## βgal-mG: 2′OMe-guanosine modified RNA: CUACACAAAUCAmGCmGAUUUUU (CUACACAAAUCAGCGAUUUUU; sugars from the 5' end r12 m1 r1 m1 r6, backbone not given here)
Human PBMCs, 24 h
  IFN-α induction by NP ssRNA when co-formulated: inhibits

## βgal-mA: 2′OMe-adenosine modified RNA: CUmACmACmAmAmAUCmAGCGmAUUUU (CUACACAAAUCAGCGAUUUU; 2'-O-methyl at A, RNA at CGU, backbone not given here)
Human PBMCs, 24 h
  IFN-α induction by NP ssRNA when co-formulated: inhibits

## β-gal [reference compound]
[1]
  immunostimulatory effects (IFN-α induction) of ApoB antisense ssRNA when co-formulated: high levels of IFN-α were still induced

## ApoB antisense ssRNA: immunostimulatory antisense ssRNA: AUUGGUAUUCAGUGUGAUGACAC (chemistry not given here) [reference compound]
Human PBMC cultures
  IFN-α production induced by the RNA alone: induced high levels of IFN-α
Human PBMCs, SNALP, 24 hr
  IFN-α production induced by ApoB antisense ssRNA in absence of modified ssRNA: 5000 to 6000 pg/mL

## βgal-mC: 2′OMe-cytidine RNA: mCUAmCAmCAAAUmCAGmCGAUUUUU (CUACACAAAUCAGCGAUUUUU; 2'-O-methyl at C, RNA at AGU, backbone not given here)
Human PBMCs, 24 h
  IFN-α induction by NP ssRNA when co-formulated: not
[1]
  immunostimulatory effects (IFN-α induction) of ApoB antisense ssRNA when co-formulated: do not inhibit

## NP-mC: 2′OMe-cytidine RNA: GGAUmCUUAUUUmCUUmCGGAGUU (GGAUCUUAUUUCUUCGGAGUU; 2'-O-methyl at C, RNA at AGU, backbone not given here)
[1]
  immunostimulatory effects (IFN-α induction) of ApoB antisense ssRNA when co-formulated: do not inhibit

## NP1496: unmodified NP1496 sense strand ssRNA: GGAUCUUAUUUCUUCGGAGUU (RNA, backbone not given here) [reference compound]
[1]
  immunostimulatory effects (IFN-α induction) of ApoB antisense ssRNA when co-formulated: high levels of IFN-α were still induced

Reference: patent publication US20080171716A1, “NUCLEIC ACID MODULATION OF TOLL-LIKE RECEPTOR-MEDIATED IMMUNE STIMULATION” (Protiva Biotherapeutics, Inc., priority 2006, published 2008)
